ChEMBL document CHEMBL4616687, “Ligand Design for Cereblon Based Immunomodulatory Therapy” (ACS Med Chem Lett, 2020)

Molecular target: Bromodomain-containing protein 4 (Homo sapiens, UniProt O60885)
Experiment: Inhibition of BRD4 bromodomain 2 (unknown origin) in HEK293 cells cotransfected with eGFP by flow cytometry based mCherry reporter gene analysis
Type: cell-based

Compound | IC50
O=C1CCC(N2Cc3c(NC(=O)CNc4ccnc(N5CCC[C@@H]5CO)n4)cccc3C2=O)C(=O)N1 (stereo not given in full) | 1600 nM
Nc1ccnc2c(C(=O)NC3CCC(=O)NC3=O)cccc12 (stereo not given) | 7700 nM
O=C1CCC(N2Cc3c(NC(=O)CNc4ccnc(N5CCN(c6cccc(C(F)(F)F)c6)CC5)n4)cccc3C2=O)C(=O)N1 (stereo not given) | 517 nM

Further lines, results first:

IC50 | Compound
3440 nM | CN(c1ccccc1)c1nccc(NCC(=O)Nc2cccc3c2CN(C2CCC(=O)NC2=O)C3=O)n1 (stereo not given)
2900 nM | Nc1ccc(C(=O)NC2CCC(=O)NC2=O)c2ncccc12 (stereo not given)
